Among the data in BindingDB's records for patent US20250387388 (Medinno Pharmaceutical Technology (Zhuhai) Co., 2025) are IC50 values, retold here.

Experiment [1] concerns the target BDNF/NT-3 growth factors receptor (Homo sapiens, UniProt Q16620). Description: Inhibitory Activity of Compounds on TRKA, TRKB and TRKC.
Experiment [2] concerns the target High affinity nerve growth factor receptor (Homo sapiens, UniProt P04629). The experiment is described as above.
The target in experiment [3] is NT-3 growth factor receptor (Homo sapiens, UniProt Q16288). The experiment is described as above.
NT-3 growth factor receptor, sequence (Q16288 whole entry): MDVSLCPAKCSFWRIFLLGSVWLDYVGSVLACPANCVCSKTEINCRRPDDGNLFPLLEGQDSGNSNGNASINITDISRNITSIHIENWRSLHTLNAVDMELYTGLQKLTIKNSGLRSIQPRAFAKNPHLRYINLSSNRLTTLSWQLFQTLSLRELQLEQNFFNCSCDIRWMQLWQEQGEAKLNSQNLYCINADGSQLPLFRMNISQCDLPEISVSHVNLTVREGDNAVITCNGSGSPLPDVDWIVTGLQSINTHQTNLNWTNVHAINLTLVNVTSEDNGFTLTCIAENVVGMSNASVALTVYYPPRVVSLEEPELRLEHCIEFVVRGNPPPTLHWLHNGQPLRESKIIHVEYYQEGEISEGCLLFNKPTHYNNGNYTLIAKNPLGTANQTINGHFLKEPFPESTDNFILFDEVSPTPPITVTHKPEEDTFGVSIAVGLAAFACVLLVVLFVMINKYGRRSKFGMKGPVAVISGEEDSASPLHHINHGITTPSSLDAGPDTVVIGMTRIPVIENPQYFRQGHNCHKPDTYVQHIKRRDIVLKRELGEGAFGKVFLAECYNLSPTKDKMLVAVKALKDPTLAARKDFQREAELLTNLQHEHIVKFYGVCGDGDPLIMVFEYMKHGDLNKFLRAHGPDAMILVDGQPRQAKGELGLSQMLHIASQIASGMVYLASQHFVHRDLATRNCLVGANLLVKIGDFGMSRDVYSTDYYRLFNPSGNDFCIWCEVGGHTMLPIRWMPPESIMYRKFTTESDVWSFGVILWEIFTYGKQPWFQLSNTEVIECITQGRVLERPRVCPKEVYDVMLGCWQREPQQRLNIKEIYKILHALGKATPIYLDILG
Experiment [4] addresses Proto-oncogene tyrosine-protein kinase receptor Ret (Homo sapiens, UniProt P07949). As to the kind of experiment: Inhibitory Activity of Compounds on RET Kinase.

Each structure is given as a SMILES string.

BDNF/NT-3 growth factors receptor, sequence (Q16620 whole entry): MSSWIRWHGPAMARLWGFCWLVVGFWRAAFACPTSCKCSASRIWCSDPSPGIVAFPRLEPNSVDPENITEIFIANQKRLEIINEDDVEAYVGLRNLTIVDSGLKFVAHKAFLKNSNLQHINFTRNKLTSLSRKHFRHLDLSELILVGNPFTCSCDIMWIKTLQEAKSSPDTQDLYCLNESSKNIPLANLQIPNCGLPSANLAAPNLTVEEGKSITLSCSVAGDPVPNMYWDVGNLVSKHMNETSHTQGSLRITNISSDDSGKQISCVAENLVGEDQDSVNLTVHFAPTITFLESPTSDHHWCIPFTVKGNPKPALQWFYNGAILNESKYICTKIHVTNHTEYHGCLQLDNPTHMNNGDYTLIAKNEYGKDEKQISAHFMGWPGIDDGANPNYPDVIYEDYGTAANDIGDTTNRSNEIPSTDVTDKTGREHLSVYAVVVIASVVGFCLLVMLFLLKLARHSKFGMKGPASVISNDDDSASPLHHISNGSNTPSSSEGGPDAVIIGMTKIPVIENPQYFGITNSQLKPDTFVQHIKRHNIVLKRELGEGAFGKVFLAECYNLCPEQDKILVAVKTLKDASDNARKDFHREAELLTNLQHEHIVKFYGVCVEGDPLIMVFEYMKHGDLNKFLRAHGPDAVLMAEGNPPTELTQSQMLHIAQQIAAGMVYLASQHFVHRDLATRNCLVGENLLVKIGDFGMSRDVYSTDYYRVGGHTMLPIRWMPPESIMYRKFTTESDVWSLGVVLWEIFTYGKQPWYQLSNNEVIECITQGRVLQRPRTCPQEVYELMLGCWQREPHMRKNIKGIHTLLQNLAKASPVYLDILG
High affinity nerve growth factor receptor, sequence (P04629 whole entry): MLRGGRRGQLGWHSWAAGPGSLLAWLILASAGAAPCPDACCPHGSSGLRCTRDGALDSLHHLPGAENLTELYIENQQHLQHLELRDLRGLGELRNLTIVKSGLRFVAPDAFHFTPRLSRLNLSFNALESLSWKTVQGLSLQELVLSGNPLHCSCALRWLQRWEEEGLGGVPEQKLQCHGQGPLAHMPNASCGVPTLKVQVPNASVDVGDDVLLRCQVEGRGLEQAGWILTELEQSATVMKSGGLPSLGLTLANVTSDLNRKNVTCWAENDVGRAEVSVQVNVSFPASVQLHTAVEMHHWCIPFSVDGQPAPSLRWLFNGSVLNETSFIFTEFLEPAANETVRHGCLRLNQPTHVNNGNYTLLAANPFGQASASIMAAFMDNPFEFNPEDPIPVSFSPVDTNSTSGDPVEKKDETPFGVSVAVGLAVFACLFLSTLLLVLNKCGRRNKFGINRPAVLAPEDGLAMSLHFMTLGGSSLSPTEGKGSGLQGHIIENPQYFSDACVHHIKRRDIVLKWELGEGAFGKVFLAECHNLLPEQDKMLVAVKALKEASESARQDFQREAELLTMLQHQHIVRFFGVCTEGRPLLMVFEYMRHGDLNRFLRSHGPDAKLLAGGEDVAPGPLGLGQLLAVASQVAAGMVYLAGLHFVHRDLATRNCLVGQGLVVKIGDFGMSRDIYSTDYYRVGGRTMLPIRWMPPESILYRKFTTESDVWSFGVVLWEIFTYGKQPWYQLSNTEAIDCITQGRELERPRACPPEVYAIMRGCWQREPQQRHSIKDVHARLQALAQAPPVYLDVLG
Proto-oncogene tyrosine-protein kinase receptor Ret, sequence (P07949 whole entry): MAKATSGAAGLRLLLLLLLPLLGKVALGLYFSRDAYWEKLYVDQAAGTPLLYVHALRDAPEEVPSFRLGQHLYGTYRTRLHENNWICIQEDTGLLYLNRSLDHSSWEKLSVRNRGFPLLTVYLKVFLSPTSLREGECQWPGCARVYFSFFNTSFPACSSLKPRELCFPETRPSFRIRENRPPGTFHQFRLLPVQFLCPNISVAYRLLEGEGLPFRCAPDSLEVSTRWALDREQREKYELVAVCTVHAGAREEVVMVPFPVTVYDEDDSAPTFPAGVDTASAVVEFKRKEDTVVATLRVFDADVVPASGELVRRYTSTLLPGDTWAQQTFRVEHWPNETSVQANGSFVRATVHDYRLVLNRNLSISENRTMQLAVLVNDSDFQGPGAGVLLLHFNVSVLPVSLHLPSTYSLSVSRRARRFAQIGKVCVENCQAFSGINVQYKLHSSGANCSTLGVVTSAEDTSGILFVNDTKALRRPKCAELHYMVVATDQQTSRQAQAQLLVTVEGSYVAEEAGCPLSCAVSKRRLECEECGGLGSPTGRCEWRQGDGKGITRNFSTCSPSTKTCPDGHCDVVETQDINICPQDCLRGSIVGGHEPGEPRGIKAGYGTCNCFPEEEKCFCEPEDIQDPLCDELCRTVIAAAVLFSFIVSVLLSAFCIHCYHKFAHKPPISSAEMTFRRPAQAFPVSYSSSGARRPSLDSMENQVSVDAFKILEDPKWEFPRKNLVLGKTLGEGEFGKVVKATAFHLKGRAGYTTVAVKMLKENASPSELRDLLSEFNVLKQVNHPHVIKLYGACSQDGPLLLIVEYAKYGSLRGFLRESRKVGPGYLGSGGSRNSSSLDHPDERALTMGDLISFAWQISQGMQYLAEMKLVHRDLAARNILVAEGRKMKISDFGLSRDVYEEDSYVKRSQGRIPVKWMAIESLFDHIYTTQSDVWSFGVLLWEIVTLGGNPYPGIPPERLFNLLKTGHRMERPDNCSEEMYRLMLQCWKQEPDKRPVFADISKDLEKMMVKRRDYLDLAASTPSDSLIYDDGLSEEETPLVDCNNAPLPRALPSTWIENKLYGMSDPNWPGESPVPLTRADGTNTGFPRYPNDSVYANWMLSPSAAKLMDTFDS

On to `CCc1cc(O)c(F)cc1-c1ccc2c(-c3nc4c([nH]3)CN(c3nc(N5CCOCC5)cnc3C(=O)c3ncc(N5CCOCC5)nc3N3Cc5nc(-c6n[nH]c7cc(-c8cc(F)c(O)cc8CC)ccc67)[nH]c5C3)C4)n[nH]c2c1` [US20250387388, Compound MDI-201], for which the figures for the IC50 in experiment [1], in experiment [2] and in experiment [3] were 6.14 nM, 5.76 nM and 2.2 nM, respectively.
The like results for `CCc1cc(O)c(F)cc1-c1ccc2c(-c3nc4c([nH]3)CN(C3CCCCN3C(=O)N3CCCCC3N3Cc5nc(-c6n[nH]c7cc(-c8cc(F)c(O)cc8CC)ccc67)[nH]c5C3)C4)n[nH]c2c1` (stereo not drawn) [US20250387388, Compound MDI-233] were, in that order, 30.4 nM, 9.01 nM and 6.32 nM.
Regarding `CCc1cc(O)c(F)cc1-c1ccc2c(-c3nc4c([nH]3)CN(C3CN(C)CCN3C(=O)N3CCN(C)CC3N3Cc5nc(-c6n[nH]c7cc(-c8cc(F)c(O)cc8CC)ccc67)[nH]c5C3)C4)n[nH]c2c1` (stereo not drawn) [US20250387388, Compound MDI-235], the IC50 (usually the point on the concentration scale where inhibition reaches its midpoint) in experiment [1] is 1.39 nM; in experiment [2], 0.57 nM; in experiment [3] it was 0.27 nM; in experiment [4], 0.1 nM.
Taken in the same sequence, the figures for `CCc1cc(O)c(F)cc1-c1ccc2c(-c3nc4c([nH]3)CN(C3CC(O)CCN3C(=O)N3CCC(O)CC3N3Cc5nc(-c6n[nH]c7cc(-c8cc(F)c(O)cc8CC)ccc67)[nH]c5C3)C4)n[nH]c2c1` (stereo not drawn) [US20250387388, Compound MDI-245] were 3.37 nM, 0.83 nM, 0.57 nM and 0.99 nM.
On to `CCc1cc(O)c(F)cc1-c1ccc2c(-c3nc4c([nH]3)CN(C3CCCN3C(=O)N3CCCC3N3Cc5nc(-c6n[nH]c7cc(-c8cc(F)c(O)cc8CC)ccc67)[nH]c5C3)C4)n[nH]c2c1` (stereo not drawn) [US20250387388, Compound MDI-231], for which the IC50 came out at 5.86 nM in experiment [1], 2.82 nM in experiment [2] and 1.49 nM in experiment [3].
The like results for `CCc1cc(O)c(F)cc1-c1ccc2c(-c3nc4c([nH]3)CN(C3CN(C(=O)N5CCOC(N6Cc7nc(-c8n[nH]c9cc(-c%10cc(F)c(O)cc%10CC)ccc89)[nH]c7C6)C5)CCO3)C4)n[nH]c2c1` (stereo not drawn) [US20250387388, Compound MDI-234] were, in that order, 1.27 nM, 1.07 nM and 0.65 nM.
For `CCc1cc(O)c(F)cc1-c1ccc2c(-c3nc4c([nH]3)CN(C3CN(CC)CCN3C(=O)N3CCN(CC)CC3N3Cc5nc(-c6n[nH]c7cc(-c8cc(F)c(O)cc8CC)ccc67)[nH]c5C3)C4)n[nH]c2c1` (stereo not drawn) [US20250387388, Compound MDI-236], the IC50 in experiment [1] came out at 1.06 nM; in experiment [2], 0.23 nM; in experiment [3], 0.2 nM.
